Reference: patent publication US8367873B2, “Phenyl-substituted bicyclooctane-1,3-dione derivatives” (Bayer Cropscience AG, priority 2008, dated 2013)

Key:
Assay type in all cases: in vivo
Alopecurus myosuroides [1] = test: Herbicidal pre-emergence action; settings: pre-emergence method, 80 g/ha, greenhouse, visual assessment vs untreated controls
Excerpt: (§1) Seeds of monocotylidonous and dicotylidonous weed and crop plants are placed in sandy loam in wood fibre pots and covered with soil. The test compounds, formulated in the form of wettable powders (WP), are then, as an aqueous suspension with a water application rate of 600 l/ha (converted), with 0.2% of wetting agent added, applied to the surface of the covering soil in different amounts.
(§2) After the treatment, the pots are placed in a greenhouse and kept under good growth conditions for the test plants. The visual assessment of the emergence damage on the test plants is carried out after a trial period of three weeks by comparison with the untreated controls (herbicidal effect in percent: 100% effect=the plants have died, 0% effect=like control plants).

Echinocloa crus-galli [2] = test: Herbicidal pre-emergence action; settings: pre-emergence method, 80 g/ha, greenhouse, visual assessment vs untreated controls
Excerpt: as §1, §2

Setaria viridis [3] = test: Herbicidal pre-emergence action; settings: pre-emergence method, 80 g/ha, greenhouse, visual assessment vs untreated controls
Excerpt: as §1, §2

Lolium multiflorum [4] = test: Herbicidal pre-emergence action; settings: pre-emergence method, 80 g/ha, greenhouse, visual assessment vs untreated controls
Excerpt: as §1, §2

Alopecurus myosuroides [5] = test: Herbicidal post-emergence action; settings: post-emergence method; for herbicidal effect against ALOMY (Alopecurus myosuroides): 80 g/ha
Description: (§3) Seeds of monocotylidonous and dicotylidonous weed and crop plants are placed in sandy loam in wood fibre pots, covered with soil and cultivated in a greenhouse under good growth conditions. Two to three weeks after sowing, the test plants are treated at the one-leaf stage. The test compounds, formulated as wettable powders (WP), are then with a water application rate of 600 l/ha (converted), with 0.2% of wetting agent added, sprayed onto the green parts of the plants in different amounts. After the test plants have been kept in the greenhouse under optimum growth conditions for about three weeks, the effect of the preparations is assessed visually in comparison to untreated controls (herbicidal effect in percent: 100% effect=the plants have died, 0% effect=like control plants).

Echinocloa crus-galli [6] = test: Herbicidal post-emergence action; settings: post-emergence method; for herbicidal effect against ECHCG (Echinochloa crus-galli): 80 g/ha
Description: as §3

Setaria viridis [7] = test: Herbicidal post-emergence action; settings: post-emergence method; for herbicidal effect against SETVI (Setaria viridis): 80 g/ha
Description: as §3

Lolium multiflorum [8] = test: Herbicidal post-emergence action; settings: post-emergence method; for herbicidal effect against LOLMU (Lolium multiflorum): 80 g/ha
Description: as §3

[9] = tested on: monocotylidonous and dicotylidonous weed and crop plants; test: Herbicidal post-emergence action (other test plants); settings: post-emergence method; for herbicidal effect against AVEFA (Avena fatua): 80 g/ha
Description: as §3

| SMILES | herbicidal effect ALOMY (Alopecurus myosuroides [1]) | herbicidal effect ECHCG (Echinocloa crus-galli [2]) | herbicidal effect SETVI (Setaria viridis [3]) | herbicidal effect LOLMU (Lolium multiflorum [4]) | herbicidal effect against ALOMY (Alopecurus myosuroides) (Alopecurus myosuroides [5]) | herbicidal effect against ECHCG (Echinochloa crus-galli) (Echinocloa crus-galli [6]) | herbicidal effect against SETVI (Setaria viridis) (Setaria viridis [7]) | herbicidal effect against LOLMU (Lolium multiflorum) (Lolium multiflorum [8]) | herbicidal effect against AVEFA (Avena fatua) [9] | pest or weed control at 80 g/ha (Alopecurus myosuroides [5]; Alopecurus myosuroides, 504 h, read-out: herbicidal effect against ALOMY (Alopecurus myosuroides)) | pest or weed control at 80 g/ha (Echinocloa crus-galli [6]; Echinochloa crus-galli, 504 h, read-out: herbicidal effect against ECHCG (Echinochloa crus-galli)) | pest or weed control at 80 g/ha (Setaria viridis [7]; Setaria viridis, 504 h, read-out: herbicidal effect against SETVI (Setaria viridis)) | pest or weed control at 80 g/ha (Lolium multiflorum [8]; Lolium multiflorum, 504 h, read-out: herbicidal effect against LOLMU (Lolium multiflorum)) | pest or weed control at 80 g/ha ([9]; 504 h, Avena fatua, read-out: herbicidal effect against AVEFA (Avena fatua)) |
| --- | --- | --- | --- | --- | --- | --- | --- | --- | --- | --- | --- | --- | --- | --- |
| CCc1cc(C)cc(CC)c1C1=C(O)[C@H]2CC(=NOC(C)C)C[C@H]2C1=O (relative stereo) [I-a-29] | 90% | 70% | 20% | 80% | 100% | 100% | 80% | 100% | 60% | – | – | – | – | – |
| CCc1cc(C)cc(CC)c1C1=C(OC(=O)C(C)(C)C)C2CC3(CC2C1=O)OCCS3 (mixture of isomers) [I-b-19] | 100% | 100% | 90% | 100% | 20% | 100% | 80% | 40% | 30% | – | – | – | – | – |
| COc1cc(C)cc(C)c1C1=C(OC(=O)C(C)C)C2CC3(CC2C1=O)OCC=CCO3 (stereo not shown) [I-b-63] | 70% | 100% | 70% | 100% | 100% | 100% | 100% | 100% | 100% | – | – | – | – | – |
| CCc1cc(C)cc(CC)c1C1=C(OC(=O)C(C)(C)C)C2CC3(COC(C)(C)O3)CC2C1=O (stereo not shown) [I-b-5] | 90% | 10% | 60% | 100% | 90% | 80% | 0% | 100% | 20% | – | – | – | – | – |
| CCc1cc(C)cc(CC)c1C1C(=O)[C@H]2C/C(=N\OC)C[C@H]2C1=O (stereo partly shown) [I-a-18] | – | – | – | – | – | – | – | – | – | 90% | 100% | 90% | 100% | 60% |
| CCC(=O)OC1=C(c2c(C)cc(C)cc2C)C(=O)C2CC(=O)CC12 (stereo not shown) [I-b-57] | – | – | – | – | 0% | 100% | 100% | 0% | 0% | – | – | – | – | – |
| C#CCON=C1CC2C(=O)C(c3c(C)cc(C)cc3C)=C(O)C2C1 (stereo not shown) [I-a-43] | – | – | – | – | 20% | 90% | 40% | 40% | 0% | – | – | – | – | – |
| Cc1cc(C)c(C2=C(OC(=O)OC(C)C)C3CC4(COC(C)(C)O4)CC3C2=O)c(C)c1 (mixture of isomers) [I-c-55] | – | – | – | – | 80% | 100% | 30% | 100% | 20% | – | – | – | – | – |
| COc1cc(C)cc(C)c1C1=C(O)C2CC(=O)CC2C1=O (stereo not shown) [I-a-46] | – | – | – | – | 0% | 100% | 40% | 0% | 0% | – | – | – | – | – |
| C=C1CC2C(=O)C(c3c(C)cc(C)cc3C)=C([O-])C2C1.[Na+] (stereo not shown) [I-f-23] | – | – | – | – | 0% | 90% | 80% | 60% | 0% | – | – | – | – | – |
| Cc1cc(C)c(C2=C(OC(=O)C(C)C)C3CC(=O)CC3C2=O)c(C)c1 (stereo not shown) [I-b-54] | – | – | – | – | 20% | 100% | 100% | 0% | 0% | – | – | – | – | – |
| CCc1cc(C)cc(CC)c1C1=C(O)[C@H]2CC3(C[C@H]2C1=O)SCCCS3 (relative stereo) [I-a-17] | – | – | – | – | 30% | 90% | 80% | 90% | 40% | – | – | – | – | – |
| Cc1cc(C)c(C2=C(O)[C@H]3CC4(C[C@H]3C2=O)OCCCO4)c(C)c1 (relative stereo) [I-a-37] | – | – | – | – | 60% | 100% | 60% | 100% | 90% | – | – | – | – | – |
| Cc1cc(C)c(C2=C(OC(=O)CC(C)C)C3CC4(COC(C)(C)O4)CC3C2=O)c(C)c1 (mixture of isomers) [I-b-44] | – | – | – | – | 80% | 80% | 60% | 100% | 80% | – | – | – | – | – |
| Cc1cc(C)c(C2=C([O-])C3CC4(CC3C2=O)OC(C)CC(C)O4)c(C)c1.[Na+] (stereo not shown) [I-f-3] | – | – | – | – | 90% | 90% | 80% | 90% | 0% | – | – | – | – | – |
| CCC(=O)OC1=C(c2c(C)cc(C)cc2C)C(=O)C2CC3(COC(C)(C)O3)CC12 (mixture of isomers) [I-b-50] | – | – | – | – | 100% | 90% | 80% | 100% | 0% | – | – | – | – | – |
| CCOC(=O)OC1=C(c2c(CC)cc(C)cc2CC)C(=O)C2CC3(CC12)SCCCS3 (stereo not shown) [I-c-16] | – | – | – | – | 0% | 90% | 30% | 80% | 30% | – | – | – | – | – |
| COc1cc(C)cc(C)c1C1=C(O)C2CC3(CC2C1=O)OCCCO3 (stereo not shown) [I-a-47] | – | – | – | – | 20% | 100% | 100% | 100% | 80% | – | – | – | – | – |
| CCc1cc(C)cc(CC)c1C1=C(OC(=O)OC)C2CC3(CC2C1=O)OC(C)CC(C)O3 (mixture of isomers) [I-c-24] | 90% | 70% | 70% | 100% | 100% | 100% | 100% | 100% | 80% | – | – | – | – | – |
